Read-outs that look alike come from different tables or passages of the source.
How the values were obtained:
Experiment in all cases: cell-based
H2R [1] = molecular target: T1, H2R (Homo sapiens, UniProt P25021); parameters: species or system HEK293T; details: HEK-293T; read-out: Mini G Protein Recruitment / Emax [%]
T1 construct: gene HRH2; full receptor, C-terminal NlucC tag (11 aa split-NanoLuc fragment); co-expressed with NlucN-mGs (mini-Gs393) in HEK293T

H1R [2] = molecular target: T2, H1R (Homo sapiens, UniProt P35367); parameters: gene HRH1; full receptor, C-terminal NlucC tag (11 aa split-NanoLuc fragment); co-expressed with NlucN-mGsq (mini-Gs/q71) in HEK293T; species or system HEK293T; details: HEK-293T, read-out: Mini G Protein Recruitment / Emax [%]
H2R [3] = molecular target: T1, H2R; parameters: species or system HEK293T; details: HEK-293T; read-out: Mini G Protein Recruitment / Emax [%]; remark: listed apart in the source
H1R [4] = molecular target: T2, H1R; parameters: gene HRH1; details: HEK-293T, read-out: Mini G Protein Recruitment / Emax [%]

T1 sequence (P25021 whole entry, the tested form may be a part): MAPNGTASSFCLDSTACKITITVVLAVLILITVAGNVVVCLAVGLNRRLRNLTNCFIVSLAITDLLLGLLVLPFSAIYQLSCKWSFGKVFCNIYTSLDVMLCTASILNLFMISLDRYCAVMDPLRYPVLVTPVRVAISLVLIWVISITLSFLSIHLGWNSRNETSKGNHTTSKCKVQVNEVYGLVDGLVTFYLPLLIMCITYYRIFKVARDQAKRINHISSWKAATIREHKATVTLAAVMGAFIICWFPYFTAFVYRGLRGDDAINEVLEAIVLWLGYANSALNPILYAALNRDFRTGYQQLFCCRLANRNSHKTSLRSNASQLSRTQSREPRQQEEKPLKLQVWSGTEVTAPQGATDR
T2 sequence (P35367 whole entry, the tested form may be a part): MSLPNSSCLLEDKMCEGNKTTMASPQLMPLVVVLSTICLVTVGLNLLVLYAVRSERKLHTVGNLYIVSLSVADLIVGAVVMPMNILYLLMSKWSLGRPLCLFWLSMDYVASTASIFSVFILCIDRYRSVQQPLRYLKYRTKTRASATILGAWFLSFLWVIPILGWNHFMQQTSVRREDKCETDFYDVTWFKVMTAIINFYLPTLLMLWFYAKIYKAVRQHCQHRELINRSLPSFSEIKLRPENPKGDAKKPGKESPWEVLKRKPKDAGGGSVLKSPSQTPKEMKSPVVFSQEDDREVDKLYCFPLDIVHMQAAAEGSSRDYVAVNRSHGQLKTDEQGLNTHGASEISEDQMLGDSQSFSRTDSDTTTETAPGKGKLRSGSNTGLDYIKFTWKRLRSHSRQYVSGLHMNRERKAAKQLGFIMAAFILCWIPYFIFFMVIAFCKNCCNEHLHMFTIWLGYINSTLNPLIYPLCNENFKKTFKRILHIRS

| Emax (H1R [2]) [%] | Emax (H2R [3]) [%] | Compound | Emax (H2R [1]) [%] | also measured |
| --- | --- | --- | --- | --- |
| 33 ± 2 | – | NCCc1c[nH]c(CCC(c2ccccc2)c2ccccc2)n1 [histapro, histaprodifen] | – | – |
| 29 ± 1.4 | – | CCC(=O)NC(N)=NCCCc1cnc[nH]1 [PI294, UR-PI294] | 95 ± 1.1 | – |
| 49 ± 3.7 | – | c1ccc(C(CCc2nc(CCNCCc3c[nH]cn3)c[nH]2)c2ccccc2)cc1 [suprahis, suprahistaprodifen] | – | – |
| – | -8 ± 0.7 | CNC(=C[N+](=O)[O-])NCCSCc1ccc(CN(C)C)o1 [ran, ranitidine] | – | – |
| – | -8 ± 0.8 | CN=C(NC#N)NCCSCc1nc[nH]c1C [cim, cimetidine] | – | – |
| – | 100 | NCCc1c[nH]cn1 [his, histamine] | – | Emax (H1R [4]): 100% |

The remaining lines, values behind:

| Compound | Emax (H1R [2]) [%] | Emax (H2R [3]) [%] | Emax (H2R [1]) [%] | also measured |
| --- | --- | --- | --- | --- |
| Cc1[nH]cnc1CSCCNC(=N)NCCCc1c[nH]cn1 [impro, impromidine] | – | – | 90 ± 1.5 | – |
| Cc1[nH]cnc1CCN [4mhis, 4-methylhistamine] | 44 ± 2.4 | – | 93 ± 2.2 | – |
| CNCCc1cnc[nH]1 [Namh, N^α-methylhistamine] | 99 ± 2 | – | 93 ± 1.7 | – |
| Cc1nc(N)sc1CCN [amt, amthamine] | – | – | 105 ± 2.8 | – |
| NC(N)=Nc1nc(CSCCC(N)=NS(N)(=O)=O)cs1 [fam, famotidine] | – | -9 ± 0.7 | – | – |
| CN(C)CCCSC(=N)N [dim, dimaprit] | – | – | 94 ± 2.6 | – |
